One may read the EC50 as the concentration at which the effect is half-maximal.

Some results are limits rather than exact numbers.

Results on 3 molecules are retold here after ChEMBL document CHEMBL1208782, “Synthesis and pharmacological validation of a novel series of non-steroidal FXR agonists” (Bioorg Med Chem Lett, 2010).

Common to all, as to type: functional, cell-based
One test addresses T1, Glucocorticoid receptor (Homo sapiens, UniProt P04150).
T1 sequence (P04150 whole entry): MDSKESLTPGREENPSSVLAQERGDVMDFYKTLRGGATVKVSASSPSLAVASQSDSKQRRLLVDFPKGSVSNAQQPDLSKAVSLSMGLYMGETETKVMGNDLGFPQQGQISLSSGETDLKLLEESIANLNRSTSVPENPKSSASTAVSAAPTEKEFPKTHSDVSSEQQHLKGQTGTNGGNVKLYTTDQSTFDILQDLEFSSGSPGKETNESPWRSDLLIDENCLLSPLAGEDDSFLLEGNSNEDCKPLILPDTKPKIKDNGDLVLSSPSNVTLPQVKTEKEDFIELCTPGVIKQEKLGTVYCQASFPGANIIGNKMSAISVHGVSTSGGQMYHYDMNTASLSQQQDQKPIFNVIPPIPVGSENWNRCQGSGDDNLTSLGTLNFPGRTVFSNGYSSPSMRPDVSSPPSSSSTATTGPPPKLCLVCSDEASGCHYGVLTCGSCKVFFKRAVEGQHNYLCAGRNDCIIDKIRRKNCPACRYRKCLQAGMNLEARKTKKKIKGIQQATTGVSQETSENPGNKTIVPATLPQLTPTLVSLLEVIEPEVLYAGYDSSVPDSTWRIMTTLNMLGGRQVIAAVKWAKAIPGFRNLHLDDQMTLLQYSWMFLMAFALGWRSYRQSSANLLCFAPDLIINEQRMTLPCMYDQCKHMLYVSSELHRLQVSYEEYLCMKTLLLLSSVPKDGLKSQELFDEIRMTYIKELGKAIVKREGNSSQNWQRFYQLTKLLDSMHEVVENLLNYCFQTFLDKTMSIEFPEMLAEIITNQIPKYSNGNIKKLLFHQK
Nature of the test: Agonist activity at GR-LBD expressed in HEK293 cells assessed as Gal4-DBD interaction by cellular mammalian one hybrid assay.

Test [1] deals with T2, Retinoic acid receptor gamma (Homo sapiens, UniProt P13631).
T2 sequence (P13631 whole entry): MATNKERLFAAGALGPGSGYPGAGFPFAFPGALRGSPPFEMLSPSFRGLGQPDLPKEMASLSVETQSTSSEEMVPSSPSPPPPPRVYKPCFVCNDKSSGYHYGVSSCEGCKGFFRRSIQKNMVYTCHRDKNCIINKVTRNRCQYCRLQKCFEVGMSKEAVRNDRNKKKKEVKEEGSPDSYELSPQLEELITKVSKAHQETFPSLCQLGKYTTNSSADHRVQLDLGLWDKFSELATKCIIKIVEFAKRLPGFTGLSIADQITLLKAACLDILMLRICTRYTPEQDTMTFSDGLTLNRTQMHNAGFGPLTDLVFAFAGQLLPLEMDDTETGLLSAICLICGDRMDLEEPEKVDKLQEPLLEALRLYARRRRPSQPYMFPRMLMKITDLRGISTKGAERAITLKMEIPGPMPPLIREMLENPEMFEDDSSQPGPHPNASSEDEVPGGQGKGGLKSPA
Nature of the test: Agonist activity at RARgamma-LBD expressed in HEK293 cells assessed as Gal4-DBD interaction by cellular mammalian one hybrid assay.

Test [2] deals with T3, Progesterone receptor (Homo sapiens) (UniProt P06401).
T3 sequence (whole entry): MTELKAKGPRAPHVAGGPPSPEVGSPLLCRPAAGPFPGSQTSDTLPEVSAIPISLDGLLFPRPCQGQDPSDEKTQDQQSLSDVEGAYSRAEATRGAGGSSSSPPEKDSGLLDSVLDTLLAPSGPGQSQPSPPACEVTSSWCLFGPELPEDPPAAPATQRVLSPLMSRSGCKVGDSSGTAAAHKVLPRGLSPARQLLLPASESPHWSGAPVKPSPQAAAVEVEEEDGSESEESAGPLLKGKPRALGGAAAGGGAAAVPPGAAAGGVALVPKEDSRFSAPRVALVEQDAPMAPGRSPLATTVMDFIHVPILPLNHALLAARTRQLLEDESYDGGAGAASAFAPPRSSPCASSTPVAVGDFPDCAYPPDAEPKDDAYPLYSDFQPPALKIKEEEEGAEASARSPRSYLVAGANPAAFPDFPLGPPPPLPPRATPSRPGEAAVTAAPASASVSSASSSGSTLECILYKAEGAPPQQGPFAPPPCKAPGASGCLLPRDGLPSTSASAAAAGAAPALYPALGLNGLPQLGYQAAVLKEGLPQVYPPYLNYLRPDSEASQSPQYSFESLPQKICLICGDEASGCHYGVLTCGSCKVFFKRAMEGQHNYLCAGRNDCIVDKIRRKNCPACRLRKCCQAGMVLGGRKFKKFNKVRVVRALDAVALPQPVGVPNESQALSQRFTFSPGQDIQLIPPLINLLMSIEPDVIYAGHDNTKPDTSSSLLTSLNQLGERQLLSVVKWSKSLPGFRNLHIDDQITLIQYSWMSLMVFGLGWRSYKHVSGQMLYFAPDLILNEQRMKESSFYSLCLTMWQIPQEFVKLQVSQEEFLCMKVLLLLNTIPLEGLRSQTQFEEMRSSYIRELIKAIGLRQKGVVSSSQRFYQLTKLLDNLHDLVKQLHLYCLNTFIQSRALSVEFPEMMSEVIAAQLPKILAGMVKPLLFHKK
Put plainly: Agonist activity at progesterone receptor-LBD expressed in HEK293 cells assessed as Gal4-DBD interaction by cellular mammalian one hybrid assay relative to progesterone.

The target in test [3] is T4, Oxysterols receptor LXR-alpha (Homo sapiens) (UniProt Q13133).
T4 sequence (whole entry): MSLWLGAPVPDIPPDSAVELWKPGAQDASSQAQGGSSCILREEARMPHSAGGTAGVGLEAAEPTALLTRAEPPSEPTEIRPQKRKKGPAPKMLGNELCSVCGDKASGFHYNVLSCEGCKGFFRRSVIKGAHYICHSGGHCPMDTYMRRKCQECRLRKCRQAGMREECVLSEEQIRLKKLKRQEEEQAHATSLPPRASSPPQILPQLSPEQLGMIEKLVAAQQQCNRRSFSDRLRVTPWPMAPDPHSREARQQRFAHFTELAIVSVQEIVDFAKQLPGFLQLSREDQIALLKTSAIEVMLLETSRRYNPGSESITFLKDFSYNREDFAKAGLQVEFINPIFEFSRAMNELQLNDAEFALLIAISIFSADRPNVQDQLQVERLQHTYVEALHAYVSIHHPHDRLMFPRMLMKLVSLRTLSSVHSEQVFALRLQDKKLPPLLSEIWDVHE
Nature of the test: Agonist activity at LXRalpha-LBD expressed in HEK293 cells assessed as Gal4-DBD interaction by cellular mammalian one hybrid assay relative to T0901317.

Consider `CC(C)c1onc(-c2c(Cl)cccc2Cl)c1COc1ccc(N(C)Cc2ccc(C(=O)O)cc2)c(C(F)(F)F)n1`, for which the EC50 (at Glucocorticoid receptor; in test [1]) was over 10 µM in each case. The Efficacy in test [2] and in test [3] was 0% each time.

With `CN(Cc1ccc(C(=O)O)cc1)c1ccc(OCc2c(-c3c(Cl)cccc3Cl)noc2C2CC2)nc1C(F)(F)F`, the 50% effective concentration (EC50) (at Glucocorticoid receptor; in test [1]) was over 10 µM each time. For the same molecule, the Efficacy in test [2] and in test [3] was 0% in each case.

Consider `CN(Cc1cccc(C(=O)O)c1)c1ccc(OCc2c(-c3c(Cl)cccc3Cl)noc2C2CC2)nc1C(F)(F)F`, for which the half-maximal effective concentration (EC50) (at Glucocorticoid receptor; in test [1]) was over 10 µM in each case. For the same molecule, the Efficacy in test [2] and in test [3] was 0% each time.
